Each compound was assayed against T1, human CGT (Homo sapiens, UniProt Q16880) (assay: CGT Enzyme Assay (Biological Example 2, RapidFire/MS/MS method with 0.01% Tween 80 added)). Conditions: enzymatic assay, CHO/CGT lysate.
T1 sequence (Q16880 21-541): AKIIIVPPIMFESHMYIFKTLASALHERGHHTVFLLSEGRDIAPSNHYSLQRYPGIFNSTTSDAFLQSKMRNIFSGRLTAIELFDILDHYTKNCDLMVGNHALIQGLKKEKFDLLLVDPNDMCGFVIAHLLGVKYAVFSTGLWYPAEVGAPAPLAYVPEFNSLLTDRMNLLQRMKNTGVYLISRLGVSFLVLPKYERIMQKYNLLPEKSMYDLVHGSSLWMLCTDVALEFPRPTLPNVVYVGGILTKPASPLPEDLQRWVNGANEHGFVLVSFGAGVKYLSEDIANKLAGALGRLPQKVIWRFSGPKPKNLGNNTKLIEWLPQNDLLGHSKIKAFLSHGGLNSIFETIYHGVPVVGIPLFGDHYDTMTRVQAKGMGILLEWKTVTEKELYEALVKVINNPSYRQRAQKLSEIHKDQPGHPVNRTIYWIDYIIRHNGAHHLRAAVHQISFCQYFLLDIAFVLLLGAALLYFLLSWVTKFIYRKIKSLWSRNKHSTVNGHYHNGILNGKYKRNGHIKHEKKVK
Type: biochemical
Description: Full-length human CGT cDNA was cloned into the BamH1/Xho1 site of pcDNA3.1 (+) mammalian expression vector (V90-20, Invitrogen, Carlsbad, Calif.) and the plasmid was transfected into Chinese hamster ovary (CHO) cells. Lysate was prepared using M-PER (Mammalian Protein Extraction Reagent, ThermoFisher Scientific, Grand Island, N.Y.) in the presence of a protease inhibitor cocktail (P8340, Sigma, Saint Louis, Mo.). Each 100 mm dish (100% confluent, approximately 1×10^7 cells) was lysed with 250 μL of M-PER containing protease inhibitors. Protein concentration was determined using a Pierce BCA protein assay kit (ThermoFisher Scientific). […] The final concentration of DMSO was 0.5% in both compound-treated and mock-treated samples. Each individual reaction was diluted with 80 μL of methanol:acetronitrile (1:3) containing 5 μM N-docdecanoyl-NBD-galactosylceramide (internal standard) to stop the reaction. 200 μL H2O:acetonitile (1:1) was added to precipitate the protein. After sufficient mixing, the plates were centrifuged at 2469 g for 38 minutes, 200 μl of supernatant was transferred to a LC-MS 96-deep well plate and a second spin was performed at 2469 g for 10 minutes. The final supernatant was injected in triplicate for RapidFire/MS/MS analysis.
The quantitative analysis of C6-NBD-dihydro-ceramide and C6-NBD-dihydro-galactosylceramide was performed on a Rapid Fire 360 high-throughput mass spectrometry system (Agilent Technologies, Palo Alto, Calif.) coupled with a API4000^+ triple quadrupole mass spectrometer (Applied Biosystems, Concord, Ontario, Canada). RapidFire software packages, including RapidFire Control panel, RapidFire UI and RapidFire Integrator (Agilent Technologies), were used to control the RapidFire instrument and to process data. Analyst 1.6.2 software packages (Applied Biosystems) were used to control the MS system and acquire MS data. 10 μL of sample was loaded on a micro-scale C4 solid-phase extraction (SPE) cartridge (Agilent Technologies) and salts were removed using water supplemented with 0.1% formic acid at the flow rate of 1.5 mL/min for 3 sec. C6-NBD-dihydro-ceramide and C6-NBD-dihydro-galactosylceramide were co-eluted into the mass spectrometer using acetonitrile containing 0.1% formic acid at the flow rate of 1.0 mL/min for 3 sec. The total cycle time of one injection was 8 secs. The MS/MS detection was performed in ESI negative mode.
The C6-NBD-dihydro-galactosylceramide reading was normalized first by dividing the peak area of C6-NBD-dihydro-galactosylceramide by the peak area of the internal standard, N-docdecanoyl-NBD-galactosylceramide.

IC50 [µM]	Structure (SMILES)
10 to 30	Cc1ccc(N2C(=O)N(c3ccc(C#N)cc3)[C@H](c3cccc(C#N)c3)C2(C)C)cc1 [Example 48-1, (R)-3-(3-(4-cyanophenyl)-5,5-dimethyl-2-oxo-1-(p-tolyl)imidazolidin-4-yl)benzonitrile]
1 to 10	C[C@@H]1[C@@H](c2cccc(OC(F)(F)F)c2)N(c2ccc(Br)cc2)C(=O)N1c1ccc(Br)cc1 [Example 11-1, (4R,5R)-1,3-bis(4-bromophenyl)-4-methyl-5-(3-(trifluoromethoxy)phenyl)imidazolidin-2-one]
< 1	CC1(C)[C@@H](c2cccc(OC(F)(F)F)c2)N(c2ccc(C(F)(F)F)cc2)C(=O)N1c1ccc(C(F)(F)F)cc1 [Example 20-1, (R)-4,4-dimethyl-5-(3-(trifluoromethoxy)phenyl)-1,3-bis(4-(trifluoromethyl)phenyl)imidazolidin-2-one]
< 1	C[C@@]1(C(F)(F)F)[C@H](c2cccc(OC(F)(F)F)c2)N(c2ccc(Cl)cc2)C(=O)N1c1ccc(Cl)cc1 [Example 25-1]
< 1	CC1(C)[C@H](c2cccc(Cl)c2)N(c2ccc(Cl)cc2)C(=O)N1c1ccc(Cl)cc1 [Example 8-2, (S)-5-(3-chlorophenyl)-1,3-bis(4-chlorophenyl)-4,4-dimethylimidazolidin-2-one]
< 1	CC1(C)C(c2cccc(OC(F)(F)F)c2)N(c2ccc(Cl)cc2)C(=O)N1c1ccc(Cl)cc1 (stereo not drawn) [Example 7]
< 1	CC[C@]1(C)[C@H](c2cccc(OC(F)(F)F)c2)N(c2ccc(Cl)cc2)C(=O)N1c1ccc(Cl)cc1 [Example 19-2, (4R,5S)-1,3-bis(4-chlorophenyl)-4-ethyl-4-methyl-5-(3-(trifluoromethoxy)phenyl)imidazolidin-2-one]
< 1	CCC[C@@]1(C)[C@@H](c2cccc(C#N)c2)N(c2ccc(Cl)cc2)C(=O)N1c1ccc(Cl)cc1 [Example 33-4, 3-((4R,5S)-1,3-bis(4-chlorophenyl)-5-methyl-2-oxo-5-propylimidazolidin-4-yl)benzonitrile]
10 to 30	CC1(C)[C@@H](c2cccc(C(F)(F)F)c2)N(c2ccc(Cl)cc2)C(=O)N1c1ccc(Cl)cc1 [Example 6-1, (R)-1,3-bis(4-chlorophenyl)-4,4-dimethyl-5-(3-(trifluoromethyl)phenyl)imidazolidin-2-one]
10 to 30	CC1(C)[C@@H](c2cccc(OC(F)(F)F)c2)N(c2cccc(Cl)c2)C(=O)N1c1cccc(Cl)c1 [Example 28-1, (R)-1,3-bis(3-chlorophenyl)-4,4-dimethyl-5-(3-(trifluoromethoxy)phenyl)imidazolidin-2-one]
< 1	Cc1ccc(N2C(=O)N(c3ccc(C)cc3)C3(CCCC3)[C@@H]2c2cccc(OC(F)(F)F)c2)cc1 [Example 35-2, (S)-1,3-di-p-tolyl-4-(3-(trifluoromethoxy)phenyl)-1,3-diazaspiro[4.4]nonan-2-one]
10 to 30	N#Cc1ccc(N2C(=O)N(c3ccc(C#N)cc3)C3(COC3)[C@H]2c2cccc(OC(F)(F)F)c2)cc1 [Example 36-1]
1 to 10	Cc1ccc(N2C(=O)N(c3ccc(C#N)cc3)[C@@H](c3cccc(C#N)c3)C23COC3)cc1 [Example 55-2, (S)-3-(7-(4-cyanophenyl)-6-oxo-5-(p-tolyl)-2-oxa-5,7-diazaspiro[3.4]octan-8-yl)benzonitrile]
10 to 30	CC1(C)[C@@H](c2cccc(OC(F)F)c2)N(c2ccc(Cl)cc2)C(=O)N1c1ccc(Cl)cc1 [Example 9-1, (R)-1,3-bis(4-chlorophenyl)-5-(3-(difluoromethoxy)phenyl)-4,4-dimethylimidazolidin-2-one]
10 to 30	CC1(C)[C@@H](c2cccc(OC(F)(F)F)c2)N(c2ccc(C#N)cc2)C(=O)N1c1ccc(Cl)cc1 [Example 40-1, (R)-4-(3-(4-chlorophenyl)-4,4-dimethyl-2-oxo-5-(3-(trifluoromethoxy)phenyl)imidazolidin-1-yl)benzonitrile]
